Data from patent US20250134921A1, “[…] ACID GLY[…] THEIR USES FOR TREATING INFECTIOUS DISEASES” (priority 2021, published 2025).

Columns and labels:
[1] = biological target: T1, SARS-CoV-2 spike S1 subunit (Severe acute respiratory syndrome coronavirus 2, UniProt P0DTC2); format: binding
T1 construct: 50 μL of S1-subunit protein solution (0.1 mg·mL^−1, Genscript Z03501); purchased Genscript Z03501

SARS-CoV-2 S1 subunit = biological target: T2, SARS-CoV-2 S1 subunit (Severe acute respiratory syndrome coronavirus 2, UniProt P0DTC2); assay: biochemical; format: binding
T2 construct: 50 μL of S1-subunit protein solution (0.1 mg·mL^−1, Genscript Z03501); purchased Genscript Z03501

[2] = tested on: UV-inactivated SARS-CoV-2 virions; format: binding
[3] = tested on: VSV-SARS-CoV-2 (SARS-CoV-2 spike pseudotyped VSV); format: cell-based

| SMILES | binding probability (BP) in competition assay [1] | Kd (SARS-CoV-2 S1 subunit) [µM] | kon (SARS-CoV-2 S1 subunit; read-out: association rate (kon)) [M⁻¹ s⁻¹] | reduction in the binding frequency (BF) [2] | reduction of VSV-SARS-CoV-2 infectivity [3] |
| --- | --- | --- | --- | --- | --- |
| CC(=O)N[C@H]1C([C@H](O)[C@H](O)COC(C)=O)O[C@](O)(C(=O)O)C[C@H]1O (some centres unmarked) [Compound 9-AcSA, 9-O-acetyl-sialic acid] | significantly lower binding probability | 5.7 ± 5 | 42000 | 20-30% |  |
| CC(=O)N[C@H]1[C@H]([C@H](O)[C@H](O)COC(C)=O)OC(O)(C(=O)O)C[C@@H]1O (some centres unmarked) [Compound 9-AcSA, 9-O-acetyl-sialic acid] |  |  |  |  | did not significantly reduce |
